Measurements from US20070173488A1, “Pyrazolothiazole Protein Kinase Modulators” (SGX Pharmaceuticals, Inc., priority 2005, published 2007).

What was measured:
Met = Met (Homo sapiens, UniProt P08581); assay: Met phosphorylation assay in GTL16 cells; assay type: cell-based; set-up: endogenous in cells; host or cells: GTL16 cells; conditions: compound 1 hour, anti-Phospho-Met (Tyr1234/1235), read-out: Met Phosp.
Experimental: GTL16 cells were maintained in DMEM Medium supplemented with 10% fetal bovine serum (FBS) 2 mM L-Glutamine and 100 units penicillin/100 μg streptomycin, at 37° C. in 5% CO2.
(§1) Compounds were tested in the following assays in duplicate.
Met phosphorylation assay: GTL16 cells were plated out at […] cells per 60×15 mm dish (Falcon) in 3 mL of assay media. The following day compound at various concentrations were added in assay media and incubated for 1 hour at 37° C. 5% CO2. After 1 hour the media was aspirated, and the cells were washed once with 1×PBS. The PBS was aspirated and the cells were harvested in 100 μL of modified RIPA lysis buffer (Tris.Cl pH 7.4, 1% NP-40, 5 mM EDTA, 5 mM NaPP, 5 mM NaF, 150 mM NaCl, Protease inhibitor cocktail (Sigma), 1 mM PMSF, 2 mM NaVO4) and transferred to a 1.7 mL eppendorf tube and incubated on ice for 15 minutes. After lysis, the tubes were centrifuged (10 minutes, 14,000 g, 4° C.). Lysates were then transferred to a fresh eppendorf tube. The samples were diluted 1:2 (250,000 cells/tube) with 2×SDS PAGE loading buffer and heated for 5 minutes at 98° C. The lysates were separated on a NuPage 4-12% Bis-Tris Gel 1.0 mm×12 well (Invitrogen), at 200V, 400 mA for approximately 40 minutes. The samples were then transferred to a 0.45 micron Nitrocellulose membrane Filter Paper Sandwich (Invitrogen) for 1 hour at 75V, 400 mA. After transferring, the membranes were placed in blocking buffer for 1 hour at room temperature with gentle rocking. The blocking buffer was removed and a 1:500 dilution of anti-Phospho-Met (Tyr1234/1235) antibody (Cell Signaling Technologies Cat. # 3126L) in 5% BSA, 0.05% Tween 20 in 1×PBS was added and the blots were incubated overnight at room temperature. The following day the blots were washed three times with 1×PBS, 0.1% Tween20. A 1:3000 dilution of HRP conjugated goat anti-rabbit antibody (Jackson ImmunoResearch Laboratories Cat. # 111-035-003) in blocking buffer, was added and incubated for 1 hr at room temperature with gentle rocking. The blot was wash 3 times in PBS, 0.1% Tween20 and visualized by chemiluminescence with SuperSignal West Pico Chemiluminescent Substrate (Pierce #34078).

T315I Ba/F3 = target: T1, T315I Ba/F3 (Homo sapiens, UniProt P00519, T315I, cells depend on it, form not given); assay: 96-well XTT cell survival assay (Ba/F3 cells); assay type: cell-based; conditions: 72 hours, read-out: T315I Ba/F3 XTT IC50
T1 construct: The candidate is BCR (P11274) N-terminal part, as in Bcr-Abl p210 or p185
Experimental: Ba/F3 cells were maintained in RPMI 1640 supplemented with 10% FBS, penicillin/streptomycin and 5 ng/ml recombinant mouse IL-3.
as §1
96-well XTT assay (Ba/F3 cells): Cells were grown in growth media containing various concentrations of compounds (duplicates) on a 96-well plate for 72 hours at 37° C. The starting cell number was 5000-8000 cells per well and volume was 120 μl. At the end of the 72-hour incubation, 40 μl of XTT labeling mixture (50:1 solution of sodium 3′-[1-(phenylamino-carbonyl)-3,4-tetrazolium]-bis (4-methoxy-6-nitro) benzene sulfonic acid hydrate and Electron-coupling reagent: PMS (N-methyl dibenzopyrazine methyl sulfate) were added to each well of the plate. After an additional 2-6 hours of incubation at 37° C., the absorbance reading at 405 nm with background correction at 650 nm was measured with a spectrophotometer.

Chain of Met (P08581 25-1390): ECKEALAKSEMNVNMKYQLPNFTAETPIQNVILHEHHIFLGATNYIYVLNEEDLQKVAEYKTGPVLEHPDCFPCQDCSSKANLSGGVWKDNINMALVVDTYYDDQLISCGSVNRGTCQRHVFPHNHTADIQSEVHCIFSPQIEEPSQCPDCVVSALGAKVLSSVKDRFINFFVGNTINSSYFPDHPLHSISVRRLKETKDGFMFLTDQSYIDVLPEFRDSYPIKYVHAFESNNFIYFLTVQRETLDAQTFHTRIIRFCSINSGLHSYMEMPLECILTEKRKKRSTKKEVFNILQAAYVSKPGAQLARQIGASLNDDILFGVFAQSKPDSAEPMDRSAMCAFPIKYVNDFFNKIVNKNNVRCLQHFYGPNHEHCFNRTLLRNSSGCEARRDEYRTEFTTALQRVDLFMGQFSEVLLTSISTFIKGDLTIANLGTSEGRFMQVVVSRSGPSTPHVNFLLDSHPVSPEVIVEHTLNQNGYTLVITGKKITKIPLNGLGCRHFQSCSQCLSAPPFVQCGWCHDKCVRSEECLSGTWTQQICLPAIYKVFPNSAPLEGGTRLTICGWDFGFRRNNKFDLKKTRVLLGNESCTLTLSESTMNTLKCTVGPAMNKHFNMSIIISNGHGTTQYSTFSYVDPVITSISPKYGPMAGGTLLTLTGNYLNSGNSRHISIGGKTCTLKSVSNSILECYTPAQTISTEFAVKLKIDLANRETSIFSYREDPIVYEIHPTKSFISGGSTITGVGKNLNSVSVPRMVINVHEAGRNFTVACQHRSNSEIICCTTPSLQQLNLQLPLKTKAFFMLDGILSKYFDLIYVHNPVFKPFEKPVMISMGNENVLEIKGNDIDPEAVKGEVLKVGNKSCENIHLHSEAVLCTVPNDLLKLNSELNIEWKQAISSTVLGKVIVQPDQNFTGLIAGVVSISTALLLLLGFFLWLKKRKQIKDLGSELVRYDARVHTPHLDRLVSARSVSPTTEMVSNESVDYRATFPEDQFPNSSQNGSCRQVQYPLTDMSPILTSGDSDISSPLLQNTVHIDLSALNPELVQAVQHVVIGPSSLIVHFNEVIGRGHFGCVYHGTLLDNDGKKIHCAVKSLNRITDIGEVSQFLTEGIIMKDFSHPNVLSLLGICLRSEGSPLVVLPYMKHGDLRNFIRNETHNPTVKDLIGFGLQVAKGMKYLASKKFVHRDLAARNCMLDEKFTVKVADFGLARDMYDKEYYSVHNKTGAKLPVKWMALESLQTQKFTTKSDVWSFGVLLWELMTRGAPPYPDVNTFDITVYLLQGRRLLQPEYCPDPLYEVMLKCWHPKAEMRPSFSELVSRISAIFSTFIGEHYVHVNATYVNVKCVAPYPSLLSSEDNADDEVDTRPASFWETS

## O=C(Nc1cc[nH]n1)Nc1nc2[nH]nc(-n3cncc3-c3ccccc3Cl)c2s1 [1-{3-[5-(2-Chloro-phenyl)-imidazol-1-yl]-1H-pyrazolo[3,4-d]thiazol-5-yl}-3-(1H-pyrazol-3-yl)-urea]
Met
  IC50: > 10 µM

## O=C(Nc1nc2[nH]nc(-n3cncc3-c3ccccc3)c2s1)C1CC1 [Cyclopropanecarboxylic acid [3-(5-phenyl-imidazol-1-yl)-1H-pyrazolo[3,4-d]thiazol-5-yl]-amide]
T315I Ba/F3
  GI50: 0.1 to 1 µM

## O=C(Nc1nc2[nH]nc(-n3cncc3-c3ccccn3)c2s1)C1CC1 [Cyclopropanecarboxylic acid [3-(5-pyridin-2-yl-imidazol-1-yl)-1H-pyrazolo[3,4-d]thiazol-5-yl]-amide]
T315I Ba/F3
  GI50: 1 to 10 µM

## O=C(Nc1nc2[nH]nc(-n3cncc3-c3c(Cl)ccc(Cl)c3Cl)c2s1)C1CC1 [Cyclopropanecarboxylic acid {3-[5-(2,3,6-trichloro-phenyl)-imidazol-1-yl]-1H-pyrazolo[3,4-d]thiazol-5-yl}-amide]
T315I Ba/F3
  GI50: 0.1 to 1 µM

## O=C(Nc1nc2[nH]nc(-n3cncc3-c3cccc(F)c3F)c2s1)C1CC1 [Cyclopropanecarboxylic acid {3-[5-(2,3-difluoro-phenyl)-imidazol-1-yl]-1H-pyrazolo[3,4-d]thiazol-5-yl}-amide]
Met
  IC50: > 10 µM
T315I Ba/F3
  GI50: 0.1 to 1 µM

## O=C(Nc1nc2[nH]nc(-n3cncc3-c3c(Cl)cccc3Cl)c2s1)C1CC1 [Cyclopropanecarboxylic acid {3-[5-(2,6-dichloro-phenyl)-imidazol-1-yl]-1H-pyrazolo[3,4-d]thiazol-5-yl}-amide]
Met
  IC50: 1 to 10 µM
T315I Ba/F3
  GI50: 0.1 to 1 µM

## O=C(Nc1nc2[nH]nc(-n3cncc3-c3ccccc3Cl)c2s1)C1CC1 [Cyclopropanecarboxylic acid {3-[5-(2-chloro-phenyl)-imidazol-1-yl]-1H-pyrazolo[3,4-d]thiazol-5-yl}-amide]
Met
  IC50: 1 to 10 µM
T315I Ba/F3
  GI50: 0.1 to 1 µM
